For one assay, the target named is T1, AlboD7L1 (Aedes albopictus, UniProt Q5MIW7).
T1 construct: made in house; host or cells: Escherichia coli BL21 (DE3) pLysS
Kind of assay: biochemical. To be noted: for ΔH (kcal/mol) ± SE / −TΔS: ITC, 30 °C, TBS pH 7.4, single-site model, N fixed = 1. The class given is binding. The method, then: To identify the potential biological function of AlboD7L1, isothermal titration calorimetry (ITC) was used to determine its binding affinities to putative ligands that are known to affect inflammation and hemostasis (biogenic amines, leukotrienes, and thromboxane A2). Measurements were performed on a MicroCal VP-ITC (Malvern Panalytical, Westborough, MA, USA) at 30 °C and stir speed at 286 rpm. […] Protein and ligands were diluted in Tris-buffered saline (TBS-20 mM Tris-HCl, 150 mM NaCl, pH 7.4) and degassed under vacuum for 5 min using a MicroCal ThermoVac (Malvern Panalytical, Westborough, MA, USA). The AlboD7L1 concentrations were 2 μM, 3 μM, or 5 μM, and ligand concentrations were prepared at 10-fold the protein concentration (20 μM, 30 μM, or 50 μM), depending on protein/ligand combination for optimal ITC performance. For eicosanoid ligands, the solvent was first evaporated under a stream of nitrogen gas prior to dissolving in TBS, vortexed, and sonicated for 10 min (Branson 1510, Branson Ultrasonics, Danbury, CT, USA) to ensure dissolution. The protein sample volume in the cell was 1.4 mL, and ligand injections were delivered in 10 μL volume in a total of 31 injections. The data was analyzed using the MicroCal PEAQ-ITC analysis software v 1.21 (Malvern Panalytical, Westborough, MA, USA) by fitting to a single-site binding model to obtain the stoichiometry (N), the dissociation constant (KD), the enthalpy of binding (ΔH), and the entropy change (ΔS°) at a constant temperature (T).

For a further assay, the system named is AeD7L1. On the set-up: method as in PMID 19234127. To be noted: cited from earlier work.
For another assay, the system named is platelet rich plasma. Description: Ex vivo platelet aggregation (light transmission aggregometer). The assay is classed as cell-based, human. To be noted: lower U-46619 doses (Supplementary Figure S3A). The method, then: Platelet rich plasma was obtained from normal healthy donors on the NCI IRB approved NIH protocol 99-CC-0168, “Collection and Distribution of Blood Components from Healthy Donors for In Vitro Research Use.” Blood donors provided written informed consent, and platelets were de-identified prior to distribution. Platelet aggregation was measured using a light transmission aggregometer (Chrono-Log Corporation, Havertown, PA, USA). Briefly, 300 μL of platelet rich plasma, diluted to approximately 2.5 × 10^5 platelets/μL in HEPES-Tyrode’s buffer (137 mM NaCl, […], 12 mM NaHCO3, 0.34 mM sodium phosphate monobasic, 1 mM MgCl2, 2.9 mM KCl, 5 mM HEPES, 5 mM glucose, 1% BSA, 0.03 mM EDTA, pH 7.4) were pre-stirred in the aggregometer for 1 min to monitor pre-aggregation effects. Recombinant AlboD7L1 or Tyrode’s buffer as negative control were added to the platelet rich plasma before adding the agonists. Aggregation agonists used in our studies included serotonin, epinephrine, collagen type I fibrils from equine tendons, U-46619, ADP or combination of agonists. Their concentrations are specified in the figure or figure captions. Technical duplicates were performed. For experiments shown in Figure 6 a Chrono-Log aggregometer model 500-CA was used while experiments shown in Supplementary Figure S3 were done in a Chrono-Log model 700.

T1 sequence (Q5MIW7 22-332 limits assumed): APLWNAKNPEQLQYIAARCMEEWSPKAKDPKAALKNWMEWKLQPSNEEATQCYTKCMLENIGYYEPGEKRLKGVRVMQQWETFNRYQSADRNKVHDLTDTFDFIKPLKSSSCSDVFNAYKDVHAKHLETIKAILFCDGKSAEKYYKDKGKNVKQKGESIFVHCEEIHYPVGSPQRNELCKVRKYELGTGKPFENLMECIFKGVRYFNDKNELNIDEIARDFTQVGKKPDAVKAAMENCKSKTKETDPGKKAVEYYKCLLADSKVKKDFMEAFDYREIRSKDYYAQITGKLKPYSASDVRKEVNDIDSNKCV

The Kd is the free concentration of one partner at which half of the binding sites on the other are occupied at equilibrium, for simple one-to-one binding. As for `NC[C@H](O)c1ccc(O)c(O)c1` [Norepinephrine, norepinephrine], at AlboD7L1, the equilibrium dissociation constant (Kd) stood at 3.67 ± 0.994 nM, the “ΔH (kcal/mol) ± SE” value was -11.6 ± 0.186 kcal/mol and the “−TΔS” value is -0.116 kcal/mol.

As for `CNC[C@H](O)c1ccc(O)c(O)c1` [Epinephrine, epinephrine], on AlboD7L1, the equilibrium dissociation constant (Kd) is 4110 ± 3330 nM, the “ΔH (kcal/mol) ± SE” value was -6.83 ± 0.809 kcal/mol and the “−TΔS” value was -0.637 kcal/mol.

For the molecule `CCCCCC(O)C=CC1C2CC(CO2)C1CC=CCCCC(=O)O` (centres unmarked) [U-46619], at AlboD7L1, the dissociation constant (Kd) was determined as 946 ± 269 nM, the “ΔH (kcal/mol) ± SE” value was -8.54 ± 0.785 kcal/mol and the “−TΔS” value is recorded as 0.189 kcal/mol. Besides, the “binding to AeD7L1” value with AeD7L1 is listed as “does not bind”.

With `NCCc1c[nH]cn1` [Histamine, histamine], at AlboD7L1, the equilibrium dissociation constant (Kd) was found to be 278 ± 66.2 nM, the “ΔH (kcal/mol) ± SE” value is -7.47 ± 0.378 kcal/mol and the “−TΔS” value is -1.63 kcal/mol.

`CCCCC/C=C\C\C=C/C=C/C=C/[C@@H](SC[C@H](N)C(=O)NCC(=O)O)[C@@H](O)CCCC(=O)O` [LTD4]: at AlboD7L1, the Kd worked out at 332 ± 48.3 nM, the “ΔH (kcal/mol) ± SE” value was -5.00 ± 0.139 kcal/mol and the “−TΔS” value is -3.98 kcal/mol.

Turning to `CCCCC/C=C\C\C=C/C=C/C=C/[C@@H](SC[C@H](NC(=O)CC[C@H](N)C(=O)O)C(=O)NCC(=O)O)[C@@H](O)CCCC(=O)O` [LTC4], at AlboD7L1, the Kd amounted to 67.7 ± 22.4 nM, the “ΔH (kcal/mol) ± SE” value was -7.90 ± 0.350 kcal/mol and the “−TΔS” value was -2.05 kcal/mol.

Turning to `NCCc1ccc(O)c(O)c1` [Dopamine, dopamine], at AlboD7L1, the Kd was 11 ± 2.19 nM, the “ΔH (kcal/mol) ± SE” value is -12.3 ± 0.197 kcal/mol and the “−TΔS” value was determined as 1.23 kcal/mol.

In the case of `CCCCC/C=C\C\C=C/C=C/C=C/[C@@H](SC[C@H](N)C(=O)O)[C@@H](O)CCCC(=O)O` [LTE4, leukotriene E4], on AlboD7L1, the Kd turned out to be 567 ± 115 nM, the “ΔH (kcal/mol) ± SE” value was -3.98 ± 0.180 kcal/mol and the “−TΔS” value was -4.69 kcal/mol.

For `NCCc1c[nH]c2ccc(O)cc12` [Serotonin, serotonin], at AlboD7L1, the Kd was 4.51 ± 2.66 nM, the “ΔH (kcal/mol) ± SE” value is -13.7 ± 0.445 kcal/mol and the “−TΔS” value is recorded as 2.13 kcal/mol.

On to `CCCCC/C=C\C[C@@H](O)/C=C/C=C/C=C\[C@@H](O)CCCC(=O)O` [LTB4, leukotriene B4], for which, at AlboD7L1, the Kd came to 342 ± 65 nM, the “ΔH (kcal/mol) ± SE” value is -2.74 ± 0.085 kcal/mol and the “−TΔS” value was -6.23 kcal/mol.

As to `NCCc1c[nH]c2ccccc12` [Tryptamine, tryptamine], on AlboD7L1, the Kd worked out at 570 ± 97.7 nM, the “ΔH (kcal/mol) ± SE” value is -6.43 ± 0.223 kcal/mol and the “−TΔS” value is -2.23 kcal/mol.

B1: AeD7L1: D7 long form salivary protein from Ae. aegypti (GenBank: AAA29347) (protein, UniProt P18153 18-321, looked up)
Long form salivary protein …: STGPFDPEEMLFTFTRCMEDNLEDGPNRLPMLAKWKEWINEPVDSPATQCFGKCVLVRTGLYDPVAQKFDASVIQEQFKAYPSLGEKSKVEAYANAVQQLPSTNNDCAAVFKAYDPVHKAHKDTSKNLFHGNKELTKGLYEKLGKDIRQKKQSYFEFCENKYYPAGSDKRQQLCKIRQYTVLDDALFKEHTDCVMKGIRYITKNNELDAEEVKRDFMQVNKDTKALEKVLNDCKSKEPSNAGEKSWHYYKCLVESSVKDDFKEAFDYREVRSQIYAFNLPKKQVYSKPAVQSQVMEIDGKQCPQ
On to B1, for which the “platelet aggregation initiated with lower doses of U-46619” value in the assay on platelet rich plasma is “inhibits platelet aggregation”.

Values taken from PMC7601585, “Aedes albopictus D7 Salivary Protein Prevents Host Hemostasis and Inflammation” (Biomolecules, 2020).
